Test results published in publication PMC9750858, “Rapid biosensor development using plant hormone receptors as reprogrammable scaffolds” (Nature Biotechnology, 2022).
Several values for one entry are separate records, joined by “and”; a condition that tells them apart may be missing. Equal values may be shown once.

Key:
PYR1^WIN / ΔN-HAB1 = target: T1, PYR1^WIN / ΔN-HAB1 (Arabidopsis thaliana, UniProt O49686, A160I/D26G/E4G/F159A/K59Q/Y23H); test: Ligand/receptor-mediated PP2C (ΔN-HAB1 phosphatase) inhibition, fluorogenic substrate, PYR1^WIN; format: biochemical
T1 construct: 6xHis (N); made in house; host or cells: E. coli BL21 (DE3) pLysS
T1 sequence (O49686 with tags, fused parts or gaps E4G/Y23H/D26G/K59Q/F159A/A160I): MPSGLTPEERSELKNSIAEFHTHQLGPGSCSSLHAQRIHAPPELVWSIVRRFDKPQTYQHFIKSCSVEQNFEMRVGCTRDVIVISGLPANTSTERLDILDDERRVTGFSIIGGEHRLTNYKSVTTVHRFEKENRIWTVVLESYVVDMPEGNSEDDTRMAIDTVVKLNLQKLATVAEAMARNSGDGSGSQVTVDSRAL
Description: Coding sequences of the cannabinoid sensors were cloned into the protein expression vector pET28a to encode 6×His-tag-receptor fusions. Constructs were sequenced and transformed into the BL21 (DE3) pLysS E. coli strain for heterologous expression with IPTG (1 mM), followed by purification, using affinity chromatography, as previously reported. In vitro validation of evolved sensors was performed by using recombinant sensors and ΔN-HAB1 (HAB1 Δ1–178, ref. [36]) proteins, as previously described. […] Cannabinoid concentration curves ranged from 4 to 10,000 nM, and median inhibitory concentrations for PP2C inhibition were obtained via fluorescent measurement in the presence of 1 mM 4-methylumbelliferyl phosphate.

PYR1^WIN-M = target: T2, PYR1^WIN-M (Arabidopsis thaliana, UniProt O49686, A160I/D26G/E4G/F159A/H60P/K59Q/N90S/Y23H); test: ELISA-like plate assay, immobilized PYR1^WIN-M, biotinylated ΔN-HAB1^T+; format: binding; details: for ELISA signal generation, receptor cross-reactivity (source data): replicates, 212
T2 construct: made in house
T2 sequence (O49686 with tags, fused parts or gaps E4G/Y23H/D26G/K59Q/H60P/N90S/F159A/A160I): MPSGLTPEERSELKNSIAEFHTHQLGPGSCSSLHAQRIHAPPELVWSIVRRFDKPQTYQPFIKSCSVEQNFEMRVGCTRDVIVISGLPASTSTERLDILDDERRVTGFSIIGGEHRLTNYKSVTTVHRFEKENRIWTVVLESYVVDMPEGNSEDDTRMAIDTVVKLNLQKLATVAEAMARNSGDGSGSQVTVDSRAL

PYR1^WIN [1] = target: T3, PYR1^WIN (Arabidopsis thaliana, UniProt O49686, A160I/D26G/E4G/F159A/K59Q/Y23H); test: Split NanoLuc luciferase complementation in yeast, NLuc^N-PYR1^WIN/NLuc^C-ΔN-HAB1; format: cell-based; design: >PYR1-WIN; expressed in transfected cells; host or cells: Saccharomyces cerevisiae; details: for LUM, split luciferase luminescence (Fig. 3c source data): replicates
PYR1^WIN [2] = target: T3, PYR1^WIN; test: Yeast transcriptional activation circuit Z4-PYR1/VP64-ΔN-HAB1, GFP reporter, PYR1^WIN; details: for whole-cell GFP fluorescence (Fig. 3b source data): 12 h, replicates
[3] = test system: PYR1-derived cannabinoid receptors (PYR1 mutants) binding HAB1

T3 sequence (Q9CAJ0 179-511, one chain of several): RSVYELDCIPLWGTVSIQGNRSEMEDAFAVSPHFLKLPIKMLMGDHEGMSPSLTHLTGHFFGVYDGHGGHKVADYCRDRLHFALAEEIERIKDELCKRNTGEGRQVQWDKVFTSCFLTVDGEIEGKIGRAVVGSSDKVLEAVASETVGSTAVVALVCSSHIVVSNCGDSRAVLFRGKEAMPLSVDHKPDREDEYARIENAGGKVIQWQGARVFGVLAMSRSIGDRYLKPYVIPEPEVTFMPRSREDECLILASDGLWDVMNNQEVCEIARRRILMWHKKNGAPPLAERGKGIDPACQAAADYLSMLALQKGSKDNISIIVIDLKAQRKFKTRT

## Cc1c(C(=O)c2cccc3ccccc23)c2cccc3c2n1C(CN1CCOCC1)CO3 (single isomer, unassigned; (+)) [WIN, (+)-WIN 55,212-2]
PYR1^WIN / ΔN-HAB1
  EC50: 72 nM
PYR1^WIN / ΔN-HAB1; [Ligand] 0.004115 uM, replicates, 0.004115 µM
  inhibition of ΔN-HAB1 phosphatase activity relative to mock (Fig. 3a source data): -0.3447 and 3.327 and 8.558
PYR1^WIN / ΔN-HAB1; [Ligand] 0.012346 uM, replicates, 0.012346 µM
  inhibition of ΔN-HAB1 phosphatase activity relative to mock (Fig. 3a source data): 13.6846 and 17.5801
PYR1^WIN / ΔN-HAB1; [Ligand] 0.012346 uM, replicates, read-out: inhibition of ΔN-HAB1 phosphatase activity relative to mock (Fig. 3a source data)
  inhibition at 0.012346 µM: 13.7%
PYR1^WIN / ΔN-HAB1; [Ligand] 0.037037 uM, replicates, 0.037037 µM
  inhibition of ΔN-HAB1 phosphatase activity relative to mock (Fig. 3a source data): 27.3559 and 29.1117
PYR1^WIN / ΔN-HAB1; [Ligand] 0.037037 uM, replicates, read-out: inhibition of ΔN-HAB1 phosphatase activity relative to mock (Fig. 3a source data)
  inhibition at 0.037037 µM: 28.7%
PYR1^WIN / ΔN-HAB1; [Ligand] 0.111111 uM, replicates, 0.111111 µM
  inhibition of ΔN-HAB1 phosphatase activity relative to mock (Fig. 3a source data): 63.5233 and 58.9433
PYR1^WIN / ΔN-HAB1; [Ligand] 0.111111 uM, replicates, read-out: inhibition of ΔN-HAB1 phosphatase activity relative to mock (Fig. 3a source data)
  inhibition at 0.111111 µM: 61.1%
PYR1^WIN / ΔN-HAB1; [Ligand] 0.333333 uM, replicates, 0.333333 µM
  inhibition of ΔN-HAB1 phosphatase activity relative to mock (Fig. 3a source data): 83.1534 and 83.7629
PYR1^WIN / ΔN-HAB1; [Ligand] 0.333333 uM, replicates, read-out: inhibition of ΔN-HAB1 phosphatase activity relative to mock (Fig. 3a source data)
  inhibition at 0.333333 µM: 84.4%
PYR1^WIN / ΔN-HAB1; [Ligand] 1 uM, replicates, 1 µM
  inhibition of ΔN-HAB1 phosphatase activity relative to mock (Fig. 3a source data): 93.2666 and 92.7582
PYR1^WIN / ΔN-HAB1; [Ligand] 1 uM, replicates, read-out: inhibition of ΔN-HAB1 phosphatase activity relative to mock (Fig. 3a source data)
  inhibition at 1 µM: 93.4%
PYR1^WIN / ΔN-HAB1; [Ligand] 10 uM, replicates, 10 µM
  inhibition of ΔN-HAB1 phosphatase activity relative to mock (Fig. 3a source data): 93.1102 and 92.715
PYR1^WIN / ΔN-HAB1; [Ligand] 10 uM, replicates, read-out: inhibition of ΔN-HAB1 phosphatase activity relative to mock (Fig. 3a source data)
  inhibition at 10 µM: 97.6%
PYR1^WIN-M; cannabinoid at 2 nM
  ELISA signal generation, receptor cross-reactivity (source data): 1.487 and 1.277 and 1.151
PYR1^WIN-M; cannabinoid at 2 μM
  ELISA signal generation, receptor cross-reactivity (source data): 3.378 and 3.384 and 3.484
PYR1^WIN-M; saline, ligand 1e-6 uM
  ELISA absorbance signal (source data): 0.133 and 0.126 and 0.127
PYR1^WIN-M; saline, ligand 1e-5 uM
  ELISA absorbance signal (source data): 0.152 and 0.136 and 0.148
PYR1^WIN-M; saline, ligand 0.0001 uM
  ELISA absorbance signal (source data): 0.162 and 0.157 and 0.179
PYR1^WIN-M; saline, ligand 0.001 uM
  ELISA absorbance signal (source data): 0.26 and 0.252 and 0.274
PYR1^WIN-M; saline, ligand 0.01 uM
  ELISA absorbance signal (source data): 0.302 and 0.321 and 0.336
PYR1^WIN-M; saline, ligand 0.1 uM
  ELISA absorbance signal (source data): 0.327 and 0.325
PYR1^WIN-M; saline, ligand 1 uM
  ELISA absorbance signal (source data): 0.315 and 0.35 and 0.349
PYR1^WIN-M; saline, ligand 10 uM
  ELISA absorbance signal (source data): 0.341 and 0.349 and 0.35
PYR1^WIN-M; saliva, ligand 1e-6 uM
  ELISA absorbance signal (source data): 0.097 and 0.09 and 0.095
PYR1^WIN-M; saliva, ligand 1e-5 uM
  ELISA absorbance signal (source data): 0.096 and 0.098
PYR1^WIN-M; saliva, ligand 0.0001 uM
  ELISA absorbance signal (source data): 0.124 and 0.126 and 0.123
PYR1^WIN-M; saliva, ligand 0.001 uM
  ELISA absorbance signal (source data): 0.239 and 0.257 and 0.242
PYR1^WIN-M; saliva, ligand 0.01 uM
  ELISA absorbance signal (source data): 0.374 and 0.38 and 0.358
PYR1^WIN-M; saliva, ligand 0.1 uM
  ELISA absorbance signal (source data): 0.397 and 0.408 and 0.382
PYR1^WIN-M; saliva, ligand 1 uM
  ELISA absorbance signal (source data): 0.436 and 0.42 and 0.431
PYR1^WIN-M; serum, ligand 1e-6 uM
  ELISA absorbance signal (source data): 0.103 and 0.1 and 0.092
PYR1^WIN-M; serum, ligand 1e-5 uM
  ELISA absorbance signal (source data): 0.098 and 0.102
PYR1^WIN-M; serum, ligand 0.0001 uM
  ELISA absorbance signal (source data): 0.108 and 0.106 and 0.1
PYR1^WIN-M; serum, ligand 0.001 uM
  ELISA absorbance signal (source data): 0.141 and 0.195 and 0.127
PYR1^WIN-M; serum, ligand 0.01 uM
  ELISA absorbance signal (source data): 0.239 and 0.24
PYR1^WIN-M; serum, ligand 0.1 uM
  ELISA absorbance signal (source data): 0.319 and 0.268 and 0.325
PYR1^WIN-M; serum, ligand 1 uM
  ELISA absorbance signal (source data): 0.312 and 0.316 and 0.329
PYR1^WIN-M; urine, ligand 1e-6 uM
  ELISA absorbance signal (source data): 0.141 and 0.142 and 0.134
PYR1^WIN-M; urine, ligand 1e-5 uM
  ELISA absorbance signal (source data): 0.148 and 0.138
PYR1^WIN-M; urine, ligand 0.0001 uM
  ELISA absorbance signal (source data): 0.162 and 0.161 and 0.149
PYR1^WIN-M; urine, ligand 0.001 uM
  ELISA absorbance signal (source data): 0.248 and 0.231 and 0.225
PYR1^WIN-M; urine, ligand 0.01 uM
  ELISA absorbance signal (source data): 0.338 and 0.33 and 0.313
PYR1^WIN-M; urine, ligand 0.1 uM
  ELISA absorbance signal (source data): 0.356 and 0.348 and 0.341
PYR1^WIN-M; urine, ligand 1 uM
  ELISA absorbance signal (source data): 0.387 and 0.372 and 0.376
PYR1^WIN [1]
  EC50: 56 nM
PYR1^WIN [1]; [Ligand] 0.0001 uM
  LUM, split luciferase luminescence (Fig. 3c source data): 4.094 and 3.848 and 3.642
PYR1^WIN [1]; [Ligand] 0.001 uM
  LUM, split luciferase luminescence (Fig. 3c source data): 4.593 and 4.28 and 4.174
PYR1^WIN [1]; [Ligand] 0.01 uM
  LUM, split luciferase luminescence (Fig. 3c source data): 5.448 and 5.829 and 5.793
PYR1^WIN [1]; [Ligand] 0.1 uM
  LUM, split luciferase luminescence (Fig. 3c source data): 9.293 and 8.992 and 7.439
PYR1^WIN [1]; [Ligand] 1 uM
  LUM, split luciferase luminescence (Fig. 3c source data): 12.392 and 10.463 and 10.193
PYR1^WIN [1]; [Ligand] 10 uM
  LUM, split luciferase luminescence (Fig. 3c source data): 13.953 and 10.293 (2×)
PYR1^WIN [2]
  EC50: 28 nM
PYR1^WIN [2]; [Ligand] 0.0001 uM
  whole-cell GFP fluorescence (Fig. 3b source data): 1.509 and 1.618 and 1.562
PYR1^WIN [2]; [Ligand] 0.001 uM
  whole-cell GFP fluorescence (Fig. 3b source data): 1.581 and 1.833 and 1.779
PYR1^WIN [2]; [Ligand] 0.01 uM
  whole-cell GFP fluorescence (Fig. 3b source data): 2.798 and 2.733 and 2.756
PYR1^WIN [2]; [Ligand] 0.1 uM
  whole-cell GFP fluorescence (Fig. 3b source data): 4.085 and 3.967 and 4.046
PYR1^WIN [2]; [Ligand] 0.5 uM
  whole-cell GFP fluorescence (Fig. 3b source data): 4.169 and 4.494 and 4.506
PYR1^WIN [2]; [Ligand] 1 uM
  whole-cell GFP fluorescence (Fig. 3b source data): 4.972 and 4.595 and 4.6223
PYR1^WIN [2]; [Ligand] 5 uM
  whole-cell GFP fluorescence (Fig. 3b source data): 4.959 and 4.89 and 5.277
PYR1^WIN [2]; [Ligand] 10 uM
  whole-cell GFP fluorescence (Fig. 3b source data): 5.105 and 5.0049 and 4.874
PYR1^WIN [2]; [Ligand] 100 uM
  whole-cell GFP fluorescence (Fig. 3b source data): 4.986 and 5.066 and 4.884
[3]; clones from shuffled library CB-S1
  cannabinoid concentration to which CB-S1 library clones respond (as low as): 50 nM
[3]; selections conducted using a racemate
  stereoisomer recognized by the evolved WIN receptor: recognizes the biologically active (+)-WIN 55,212-2 stereoisomer
